We go through one compound from patent US11826453B2, “Hair care composition comprising piroctone olamine” (Conopco, Inc., priority 2019, dated 2023).

A short description of the series: Octopirox degradation under cool white light (LCMS / UPLC-UV). It counts as physicochemical. The settings on record: 24 hours. The protocol: The cool white light (CWL) irradiation was carried out in an X-Rite (Macbeth) Spectra Light III chamber. CWL mode was chosen which provides stable irradiation mimicking the indoor light. The intensity of light was fixed which estimated at 6 μw/cm2 for UVA and 1.5 μw/cm^2 for UVB. The chamber temperature was equal to the room temperature (20±2° C.). The sample was placed in a line close to the center of the chamber. After 24 hours, the sample was analyzed by LCMS (Water UPLC coupled with Quatro Micro MS), by quantitatively measured using UPLC-UV analysis following DPS derivatization.
The separation was performed by a UPLC BEH C18 column and the mobile phase was acetonitrile/water (60/40, 0.1% formic acid) in isocratic elution. Electrospray ionization in positive mode was applied for MS scan.

For `Cc1cc(CC(C)CC(C)(C)C)n(O)c(=O)c1.NCCO` (centres unmarked) [Octopirox®, Piroctone olamine], the “quantity of Octopirox® after cool white light” value (cool white light (indoor light; 6 μw/cm2 UVA, 1.5 μw/cm^2 UVB), 20±2° C.) is “reduced”. Further, the “compound of formula 1 in the degradation product” value (cool white light, LCMS) is “no compound of formula 1 can be detected”.
